Measured values reported in US20150374673A1, “Combination Therapy for the Treatment of Nosocomial Pneumonia” (priority 2013, published 2015).

Key:
P. aeruginosa = experiment: Neutropenic thigh infection model (CD-1 mice), exposure response of ceftazidime q2h and avibactam; format: in vivo, Pseudomonas aeruginosa; details: for % fT>CT required to support a bacteriostatic effect: CT 1 mg/L; for Emax model maximum / Emax model minimum: ceftazidime q2h and avibactam q2h, SE between brackets; for % fT > CT1 of avibactam associated with 24-h stasis: CT1 = threshold concentration of 1 mg/L; for static % fT > MIC (CAZ): ceftazidime monotherapy q2h
Method: CD-1 neutropenic mice were infected with appr. 10^6 cfu β-lactamase-producing P. aeruginosa strains in the thigh.
Outbred female CD-1 mice (Charles River, Netherlands), 4 to 5 weeks old, weighing 20 to 25 g were used in the experiments. Granulocytopenia was induced by two doses of cyclophosphamide s.c.: one at four days (150 mg/kg) and the other at one day (100 mg/kg) before the infection experiment.
The neutropenic mice were infected with 2 P. aeruginosa strains per animal, one in the left and one in the right thigh. 0.05 mL of bacterial suspension consisting of approximately 10^5-10^6 bacteria was inoculated intramuscularly. […] All dosing regimens were performed in at least two animals. At t=0 h, 2 mice were humanely sacrificed to determine the initial inoculum just before treatment. All other animals were sacrificed at t=24 h unless the welfare of the animals indicated earlier termination was necessary, following animal welfare regulations. Thighs were taken and moved to a pre-cooled 10-mL plastic tube (Transport Tube, Omnilabo, NL) ? containing 2 mL phosphate buffered saline (PBS; NaCl 8.00 g/L, Na2HPO42H2 1.44 g/L, KH2PO4 0.26 g/L, pH 7.2-7.4). Subsequently thighs were ground using an Ultra-Turrax (IKA Labortechnik, Germany). A tenfold dilution series was prepared and 3×10 μL plated (Chromagar, Biomerieux, NL) per dilution. The following day, colonies were counted and the number of cfu per thigh calculated. The drug effect was then determined as the difference between the log10[cfu/thigh] values at t=24 h and t=0 h (mean value of 2 mice) expressed as “dcfu”.
The amount of avibactam administered varied in frequency and dose. […] The drug effect was determined as the difference between the log10 [cfu/thigh] values at t=24 h and t=0 h (mean value of 2 mice) expressed as dcfu. Free drug concentrations were used in all calculations. […] Oral presentation at the ? 52nd Interscience Conference on Antimicrobial Agents and Chemotherapy, San Francisco, Calif. Abstract #A-1760).

[1] = Serum and epithelial lining fluid (ELF) pharmacokinetics of ceftazidime-avibactam human simulated regimen in infected and uninfected mice; details: for fT > MIC: human simulated CAZ-AVI 2000-500 mg q8h 2 h infusion; for Kp at 16 h / Kp at 18.5 h / Kp at 22 h / Kp at 24 h: female, ICR, mouse, epithelial lining fluid (ELF) vs serum, ELF point Penetration Ratio, ELF vs serum, third dosing interval
Method: Pathogen-free, female ICR mice weighing approximately 25 g were acquired from Harlan Sprague Dawley, Inc. (Indianapolis, Ind.) and utilized throughout these experiments. Animals were maintained and used in accordance to National Research Council recommendations, and provided food and water ad libitum. Mice were rendered neutropenic with 100 and 250 mg/kg intraperitoneal injections of cyclophosphamide (Cytoxan®; Bristol-Myers Squibb, Princeton, N.J.) given one and four days prior to inoculation, respectively. Three days prior to inoculation, mice were also given a single 5 mg/kg intraperitoneal injection of uranyl nitrate. This produces a predictable degree of renal impairment to slow drug clearance. Two hours prior to the initiation of antimicrobial therapy, mice were lightly anesthetized using isofluorane (2.5% v/v in 100% oxygen carrier) until the respiratory rate decreased upon visual inspection. Pneumonia was induced by the instillation of 0.05 mL of a 10^7 CFU inoculum of the test isolate suspended in 3% mucin in normal saline. While the mouse is anesthetized, the inoculum is delivered into the animal's oral cavity, blocking the nares and holding the mouse in a vertical position. Aspiration of bacteria into the lungs occurred as the animals began to spontaneously respire.
In these studies, we utilized the previously determined dosing regimen described above. Confirmatory serum pharmacokinetic studies were undertaken in infected mice. For these studies, infected neutropenic mice were dosed with the above calculated regimen and groups of six mice ? were euthanized at multiple time points throughout a 24 h period to confirm target exposures blood was collected via cardiac puncture and the serum samples were stored at −80° C. until analysis. Pharmacokinetic studies were undertaken to describe the epithelial lining fluid concentrations in infected mice. For these studies, infected neutropenic mice were dosed with the above calculated regimen and groups of six mice were euthanized at multiple time points throughout the third dosing period (i.e. 16-24 h). Once euthanized, serum and BAL samples were collected as described above. Serum and BAL samples were stored at −80° C. until analysis.

[2] = tested on: Gram-positive or Gram-negative bacterial strains; experiment: MIC in pulmonary surfactant compared with CAMHB alone, whole strain panel; format: cell-based; details: up to 10% pulmonary surfactant vs CAMHB alone; any strain tested
Method: The bacterial strains used in this testing were part of the microbiological culture collection housed at AstraZeneca R&D Boston (AstraZeneca Research Collection, designated ARC). The panel of bacterial isolates used for this testing was comprised of five CLSI QC reference strains and the remainder were either recent clinical isolates expressing β-lactamases or isolates from the primary bacterial screening panels.
MIC values were determined using the CLSI broth microdilution methodology with slight variation. Stock compound mother plates were prepared and used to spot 2 μL aliquots of serial 2-fold drug dilutions to columns 1-11 of 96-well daughter plates using a Perkin-Elmer MiniTrak™ MultiPosition dispenser. […] An inoculum volume of 100 μL (5×10E^5 CFU/mL) in CAMHB containing 0, 1, 2.5, 5, or 10% pulmonary surfactant was added using a multichannel Finnpipette® to each well of the 96-well plate.
The minimum inhibitory concentration (MIC) values against each organism/drug combination were determined using broth microdilution methodology according to CLSI guidelines. The recommended reference bacterial strains for each test group and reference compounds were incorporated into each test. […]
MIC values for individual isolates were read visually. […]

[3] = 6 P. aeruginosa strains, with fixed ceftazidime q2h, thigh
[4] = strain 1, thigh infection, Dose CAZ 32 mg/kg
[5] = strain 5, thigh infection, Dose CAZ 64 mg/kg
[6] = strain 7, thigh infection, Dose CAZ 64 mg/kg
[7] = strain 11, thigh infection, Dose CAZ 64 mg/kg
[8] = strain 18, thigh infection, Dose CAZ 64 mg/kg
[9] = strain 19, thigh infection, Dose CAZ 32 mg/kg

NC(=O)[C@@H]1CC[C@@H]2CN1C(=O)N2OS(=O)(=O)[O-].[Na+] [avibactam, [(2S,5R)-2-carbamoyl-7-oxo-1,6-diazabicyclo[3.2.1]octan-6-yl]hydrogen sulfate]
mean % fT>CT 1 mg/L for static effect (P. aeruginosa; [3]): 36.3%
range of % fT>CT 1 mg/L for static effect (P. aeruginosa; [3]): 14.1-62.5
% fT>CT required to support a bacteriostatic effect (P. aeruginosa; strain 7, thigh): 30.2
% fT>CT required to support a bacteriostatic effect (P. aeruginosa; strain 18, thigh): 74.1
% fT>CT required for static effect (P. aeruginosa; CT of 1 mg/L, dose fractionation studies, 2 strains, with ceftazidime q2h, thigh): 30.2-74.1
% fT > CT1 of avibactam associated with 24-h stasis, mean (P. aeruginosa; mean of 6 strains (sd 17.8), thigh infection, CT1 = 1 mg/L): 36.3%
Emax model maximum (P. aeruginosa; strain 1): 1.26
Emax model minimum (P. aeruginosa; strain 1): ≈′−727.5
TDD AVI associated with 24-h stasis (P. aeruginosa; [4]): 123.70 mg/kg
log TDD AVI associated with 24-h stasis (P. aeruginosa; [4]): 2.09
% fT > CT1 of avibactam associated with 24-h stasis (P. aeruginosa; [4]): 37.2%
Emax model maximum (P. aeruginosa; strain 5): ≈0.70
Emax model minimum (P. aeruginosa; strain 5): −3.25 (0.95)
TDD AVI associated with 24-h stasis (P. aeruginosa; [5]): 33.59 mg/kg
log TDD AVI associated with 24-h stasis (P. aeruginosa; [5]): 1.53
% fT > CT1 of avibactam associated with 24-h stasis (P. aeruginosa; [5]): 14.1%
Emax model maximum (P. aeruginosa; strain 7): 1.81 (0.29)
Emax model minimum (P. aeruginosa; strain 7): −2.83 (1.41)
TDD AVI associated with 24-h stasis (P. aeruginosa; [6]): 267.47 mg/kg
log TDD AVI associated with 24-h stasis (P. aeruginosa; [6]): 2.43
% fT > CT1 of avibactam associated with 24-h stasis (P. aeruginosa; [6]): 50.4%
Emax model maximum (P. aeruginosa; strain 11): 1.40 (0.50)
Emax model minimum (P. aeruginosa; strain 11): −2.95 (0.41)
TDD AVI associated with 24-h stasis (P. aeruginosa; [7]): 77.88 mg/kg
log TDD AVI associated with 24-h stasis (P. aeruginosa; [7]): 1.89
% fT > CT1 of avibactam associated with 24-h stasis (P. aeruginosa; [7]): 29.1%
Emax model maximum (P. aeruginosa; strain 18): 0.83 (0.36)
Emax model minimum (P. aeruginosa; strain 18): −2.36 (0.23)
TDD AVI associated with 24-h stasis (P. aeruginosa; [8]): 58.91 mg/kg
log TDD AVI associated with 24-h stasis (P. aeruginosa; [8]): 1.77
% fT > CT1 of avibactam associated with 24-h stasis (P. aeruginosa; [8]): 24.2%
Emax model maximum (P. aeruginosa; strain 19): 2.46 (0.22)
Emax model minimum (P. aeruginosa; strain 19): −1.42 (0.46)
TDD AVI associated with 24-h stasis (P. aeruginosa; [9]): 541.34 mg/kg
log TDD AVI associated with 24-h stasis (P. aeruginosa; [9]): 2.73
% fT > CT1 of avibactam associated with 24-h stasis (P. aeruginosa; [9]): 62.5%
effect on ceftazidime static % fT>MIC (P. aeruginosa; thigh infection, all strains): reduced
fT > MIC ([1]; MIC 4, ELF, infected mice): 3%
fT > MIC ([1]; MIC 4, ELF, uninfected mice): 19%
fT > MIC ([1]; MIC 4, Serum, infected mice): 34%
fT > MIC ([1]; MIC 4, Serum, uninfected mice): 19%
Kp at 16 h ([1]; infected mice): 0.59
Kp at 18.5 h ([1]; infected mice): 0.66
Kp at 22 h ([1]; infected mice): 0.69
Kp at 24 h ([1]; infected mice): 0.8
Kp at 16 h ([1]; uninfected mice): 0.86
Kp at 18.5 h ([1]; uninfected mice): 0.74
Kp at 22 h ([1]; uninfected mice): 0.93
Kp at 24 h ([1]; uninfected mice): 0.95
MIC increase in pulmonary surfactant [2]: no MIC increases were observed

CC(C)(O/N=C(\C(=O)N[C@@H]1C(=O)N2C(C(=O)[O-])=C(C[n+]3ccccc3)CS[C@H]12)c1csc(N)n1)C(=O)O [ceftazidime, (6R,7R)-7-[[(2Z)-2-(2-amino-1,3-thiazol-4-yl)-2-(1-hydroxy-2-methyl-1-oxopropan-2-yl)oxyiminoacetyl]amino]-8-oxo-3-(pyridin-1-ium-1-ylmethyl)-5-thia-1-azabicyclo[4.2.0]oct-2-ene-2-carboxylate pentahydrate]
static % fT > MIC (CAZ) (P. aeruginosa; isolate no. 1): no effect
static % fT > MIC (CAZ) (P. aeruginosa; isolate no. 3): 0%
static % fT > MIC (CAZ) (P. aeruginosa; isolate no. 5): 3%
static % fT > MIC (CAZ) (P. aeruginosa; isolate no. 7): 7.2%
static % fT > MIC (CAZ) (P. aeruginosa; isolate no. 11): no effect
static % fT > MIC (CAZ) (P. aeruginosa; isolate no. 18): 9%
static % fT > MIC (CAZ) (P. aeruginosa; isolate no. 19): 38%
fT > MIC ([1]; MIC 4, ELF, infected mice): 100%
fT > MIC ([1]; MIC 4, ELF, uninfected mice): 100%
fT > MIC ([1]; MIC 4, Serum, infected mice): 100%
fT > MIC ([1]; MIC 4, Serum, uninfected mice): 100%
fT > MIC ([1]; MIC 32, ELF, infected mice): 0%
fT > MIC ([1]; MIC 32, ELF, uninfected mice): 34%
fT > MIC ([1]; MIC 32, Serum, infected mice): 50%
fT > MIC ([1]; MIC 32, Serum, uninfected mice): 62%
Kp at 16 h ([1]; infected mice): 2.13
Kp at 18.5 h ([1]; infected mice): 0.8
Kp at 22 h ([1]; infected mice): 0.3
Kp at 24 h ([1]; infected mice): 0.95
Kp at 16 h ([1]; uninfected mice): 1.02
Kp at 18.5 h ([1]; uninfected mice): 0.8
Kp at 24 h ([1]; uninfected mice): 0.64
MIC increase in pulmonary surfactant [2]: no MIC increases were observed
